From BindingDB's records for doi:10.1124/jpet.300.1.314 (Glaxosmithkline, 2002) come the findings set out here.

Where “and” joins values, the source holds several entries; their conditions need not be identical. Identical values can stand only once.

In assay [1] the target is T1, Substance-K receptor (Cavia porcellus, UniProt Q64077).
T1 sequence (Q64077 whole entry): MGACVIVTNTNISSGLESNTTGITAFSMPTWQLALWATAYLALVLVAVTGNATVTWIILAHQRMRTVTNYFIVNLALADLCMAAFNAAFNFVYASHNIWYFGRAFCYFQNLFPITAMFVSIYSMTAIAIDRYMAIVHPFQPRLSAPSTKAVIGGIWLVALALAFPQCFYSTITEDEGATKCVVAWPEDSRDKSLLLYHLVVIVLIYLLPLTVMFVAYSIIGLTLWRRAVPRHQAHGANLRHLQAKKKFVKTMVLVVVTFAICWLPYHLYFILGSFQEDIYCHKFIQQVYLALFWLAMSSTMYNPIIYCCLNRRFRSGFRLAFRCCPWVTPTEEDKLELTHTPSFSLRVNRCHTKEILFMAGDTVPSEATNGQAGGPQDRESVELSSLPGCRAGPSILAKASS

In assay [2] the target is T2, Substance-K receptor (Rattus norvegicus, UniProt P16610).
T2 sequence (P16610 whole entry): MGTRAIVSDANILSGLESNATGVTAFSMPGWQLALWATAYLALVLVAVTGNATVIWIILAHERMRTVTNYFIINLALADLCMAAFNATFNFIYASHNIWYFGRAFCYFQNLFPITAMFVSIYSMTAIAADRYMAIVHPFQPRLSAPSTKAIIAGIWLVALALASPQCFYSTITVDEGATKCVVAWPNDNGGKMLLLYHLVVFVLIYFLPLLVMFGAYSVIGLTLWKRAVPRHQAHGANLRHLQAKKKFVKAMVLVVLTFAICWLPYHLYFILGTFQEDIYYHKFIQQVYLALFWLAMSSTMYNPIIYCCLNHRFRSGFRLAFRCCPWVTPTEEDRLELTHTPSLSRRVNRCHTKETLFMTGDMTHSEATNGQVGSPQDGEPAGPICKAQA

A word on the Ki: it is the equilibrium dissociation constant of an inhibitor or competing ligand from its target. A high value points to a looser hold on the target. As for `CC[C@H](NC(=O)c1c(OCC(=O)O)c(-c2ccccc2)nc2ccccc12)c1ccccc1` [N-[(S)-1-Phenylpropyl]-2-phenyl-3-(carboxymethoxy)quinoline-4-carboxamide], the Ki on Substance-K receptor [1] is more than 10 µM; on Substance-K receptor [2] it was 2.33 µM and 5.25 µM.
